# Reference: article PMC5078040 (Oncotarget, 2016)
# Experiments:
# STK16 = biological target: T1, STK16 (Homo sapiens, UniProt O75716); test: KinomeScan; type: binding; settings: 1uM
# T1 construct: purchased DiscoveRx KINOMEscan
# PRKG2 = biological target: T2, PRKG2 (Homo sapiens, UniProt Q13237); test: KinomeScan; type: binding; settings: 1uM
# T2 construct: purchased DiscoveRx KINOMEscan
# ABL1-phosphorylated = biological target: T3, ABL1-phosphorylated (Homo sapiens, UniProt P00519); test: KinomeScan; type: binding; settings: 1uM
# T3 construct: purchased DiscoveRx KINOMEscan
# FES = biological target: T4, FES (Homo sapiens, UniProt P07332); test: KinomeScan; type: binding; settings: 1uM
# T4 construct: purchased DiscoveRx KINOMEscan
# T4 sequence (P07332 whole entry): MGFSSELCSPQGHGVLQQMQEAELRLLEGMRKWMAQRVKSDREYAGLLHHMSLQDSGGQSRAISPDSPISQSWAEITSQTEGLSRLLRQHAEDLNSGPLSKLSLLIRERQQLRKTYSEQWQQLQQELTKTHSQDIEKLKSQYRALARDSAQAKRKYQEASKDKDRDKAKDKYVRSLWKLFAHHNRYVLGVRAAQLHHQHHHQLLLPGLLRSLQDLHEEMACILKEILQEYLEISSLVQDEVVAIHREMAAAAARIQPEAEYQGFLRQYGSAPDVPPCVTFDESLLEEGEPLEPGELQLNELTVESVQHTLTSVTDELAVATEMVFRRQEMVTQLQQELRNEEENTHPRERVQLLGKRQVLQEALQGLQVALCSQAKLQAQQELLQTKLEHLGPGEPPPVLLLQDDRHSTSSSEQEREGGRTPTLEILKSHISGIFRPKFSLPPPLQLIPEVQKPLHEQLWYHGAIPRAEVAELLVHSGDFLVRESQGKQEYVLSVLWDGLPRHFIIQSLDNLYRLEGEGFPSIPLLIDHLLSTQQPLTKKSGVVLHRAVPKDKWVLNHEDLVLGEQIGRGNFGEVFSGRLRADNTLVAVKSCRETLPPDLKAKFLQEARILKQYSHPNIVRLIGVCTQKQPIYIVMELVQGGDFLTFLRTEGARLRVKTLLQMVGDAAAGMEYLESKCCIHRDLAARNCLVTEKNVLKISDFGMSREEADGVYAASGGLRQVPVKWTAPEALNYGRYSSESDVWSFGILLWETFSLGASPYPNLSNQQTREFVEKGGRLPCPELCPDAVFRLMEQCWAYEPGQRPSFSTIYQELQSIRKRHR
# PI3Kγ = PI3Kγ (Homo sapiens, UniProt P48736); test: biochemical
# Description: (§1) The reaction in each tube was started immediately by adding ATP and kept going for an hour under 37°C. After the tube cooled for 5 minutes at room temperature, 5 μL solvent reactions were carried out in a 384-well plate. Then 5 μL of ADP-Glo™ reagent was added into each well to stop the reaction and consume the remaining ADP within 40 minutes. At the end, 10 μL of kinase detection reagent was added into the well and incubated for 30 minutes to produce a luminescence signal. Luminescence signal was measured with an automated plate reader (Perkin-Elmer Envision) and each measurement was performed in triplicate.
# MAP4K3 = biological target: T5, MAP4K3 (Homo sapiens, UniProt Q8IVH8); test: KinomeScan; type: binding; settings: 1uM
# T5 construct: purchased DiscoveRx KINOMEscan
# KIT(V559D) = biological target: T6, KIT(V559D) (Homo sapiens, UniProt P10721, V559D); test: KinomeScan; type: binding; settings: 1uM
# T6 construct: purchased DiscoveRx KINOMEscan
# T6 sequence (P10721 26-976 V559D): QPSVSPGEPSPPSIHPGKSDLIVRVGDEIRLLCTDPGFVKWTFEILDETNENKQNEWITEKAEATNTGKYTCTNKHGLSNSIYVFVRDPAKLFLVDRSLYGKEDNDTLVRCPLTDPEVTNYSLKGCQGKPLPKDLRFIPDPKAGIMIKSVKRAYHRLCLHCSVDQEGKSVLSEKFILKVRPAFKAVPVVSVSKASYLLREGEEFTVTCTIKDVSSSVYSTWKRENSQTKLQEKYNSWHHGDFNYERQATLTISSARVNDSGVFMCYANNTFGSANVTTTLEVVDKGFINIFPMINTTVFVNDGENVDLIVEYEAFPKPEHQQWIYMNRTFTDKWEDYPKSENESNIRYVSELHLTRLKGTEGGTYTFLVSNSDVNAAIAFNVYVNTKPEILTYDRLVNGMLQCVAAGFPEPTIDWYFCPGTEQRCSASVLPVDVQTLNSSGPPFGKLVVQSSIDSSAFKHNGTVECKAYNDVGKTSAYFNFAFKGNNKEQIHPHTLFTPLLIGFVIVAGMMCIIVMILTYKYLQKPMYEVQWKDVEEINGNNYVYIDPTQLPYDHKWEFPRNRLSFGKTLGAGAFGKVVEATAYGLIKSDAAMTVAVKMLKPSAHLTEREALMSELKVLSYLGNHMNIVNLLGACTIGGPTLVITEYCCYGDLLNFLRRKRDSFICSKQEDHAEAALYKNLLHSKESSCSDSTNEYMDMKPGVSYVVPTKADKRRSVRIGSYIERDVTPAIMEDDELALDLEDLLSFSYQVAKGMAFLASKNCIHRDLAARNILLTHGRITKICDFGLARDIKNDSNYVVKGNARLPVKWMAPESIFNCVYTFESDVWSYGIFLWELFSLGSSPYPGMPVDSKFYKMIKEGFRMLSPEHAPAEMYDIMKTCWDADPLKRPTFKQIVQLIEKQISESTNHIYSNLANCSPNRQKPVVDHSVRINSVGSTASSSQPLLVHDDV
# KIT(D816H) = biological target: T7, KIT(D816H) (Homo sapiens, UniProt P10721, D816H); test: KinomeScan; type: binding; settings: 1uM
# T7 construct: purchased DiscoveRx KINOMEscan
# T7 sequence (P10721 26-976 D816H): as the sequence (P10721 26-976 V559D) above, with D534V, D791H counted along it
# NEK6 = biological target: T8, NEK6 (Homo sapiens, UniProt Q9HC98); test: KinomeScan; type: binding; settings: 1uM
# T8 construct: purchased DiscoveRx KINOMEscan
# T8 sequence (Q9HC98 whole entry): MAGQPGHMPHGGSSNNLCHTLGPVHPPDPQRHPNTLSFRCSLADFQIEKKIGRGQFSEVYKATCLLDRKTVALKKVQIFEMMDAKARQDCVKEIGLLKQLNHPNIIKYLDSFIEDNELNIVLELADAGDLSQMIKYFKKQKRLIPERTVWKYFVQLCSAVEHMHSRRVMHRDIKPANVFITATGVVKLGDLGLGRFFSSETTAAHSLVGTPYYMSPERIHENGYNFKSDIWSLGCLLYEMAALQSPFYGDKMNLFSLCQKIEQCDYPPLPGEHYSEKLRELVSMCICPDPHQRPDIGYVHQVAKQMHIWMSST
# SYK = biological target: T9, SYK (Homo sapiens, UniProt P43405); test: KinomeScan; type: binding; settings: 1uM
# T9 construct: purchased DiscoveRx KINOMEscan
# NDR1 = biological target: T10, NDR1 (Homo sapiens, UniProt Q15208); test: KinomeScan; type: binding; settings: 1uM
# T10 construct: purchased DiscoveRx KINOMEscan
# [1] = biological target: T11, ABL1(Q252H)-phosphorylated (Homo sapiens, UniProt P00519, Q252H); test: KinomeScan; type: binding; settings: 1uM
# T11 construct: purchased DiscoveRx KINOMEscan
# BRSK1 = biological target: T12, BRSK1 (Homo sapiens, UniProt Q8TDC3); test: KinomeScan; type: binding; settings: 1uM
# T12 construct: purchased DiscoveRx KINOMEscan
# PI3Kβ = biological target: T13, PI3Kβ (Mus musculus, UniProt Q8BTI9); test: PI3Ks isoform in cell EC50 assay (AKT phosphorylation, Western Blotting); type: cell-based; settings: NIH-3T3, 5μM LPA, read-out: cellular EC50 PI3K Beta
# T13 construct: endogenous in cells; host or cells: NIH-3T3
# T13 sequence (Q8BTI9 whole entry, canonical isoform): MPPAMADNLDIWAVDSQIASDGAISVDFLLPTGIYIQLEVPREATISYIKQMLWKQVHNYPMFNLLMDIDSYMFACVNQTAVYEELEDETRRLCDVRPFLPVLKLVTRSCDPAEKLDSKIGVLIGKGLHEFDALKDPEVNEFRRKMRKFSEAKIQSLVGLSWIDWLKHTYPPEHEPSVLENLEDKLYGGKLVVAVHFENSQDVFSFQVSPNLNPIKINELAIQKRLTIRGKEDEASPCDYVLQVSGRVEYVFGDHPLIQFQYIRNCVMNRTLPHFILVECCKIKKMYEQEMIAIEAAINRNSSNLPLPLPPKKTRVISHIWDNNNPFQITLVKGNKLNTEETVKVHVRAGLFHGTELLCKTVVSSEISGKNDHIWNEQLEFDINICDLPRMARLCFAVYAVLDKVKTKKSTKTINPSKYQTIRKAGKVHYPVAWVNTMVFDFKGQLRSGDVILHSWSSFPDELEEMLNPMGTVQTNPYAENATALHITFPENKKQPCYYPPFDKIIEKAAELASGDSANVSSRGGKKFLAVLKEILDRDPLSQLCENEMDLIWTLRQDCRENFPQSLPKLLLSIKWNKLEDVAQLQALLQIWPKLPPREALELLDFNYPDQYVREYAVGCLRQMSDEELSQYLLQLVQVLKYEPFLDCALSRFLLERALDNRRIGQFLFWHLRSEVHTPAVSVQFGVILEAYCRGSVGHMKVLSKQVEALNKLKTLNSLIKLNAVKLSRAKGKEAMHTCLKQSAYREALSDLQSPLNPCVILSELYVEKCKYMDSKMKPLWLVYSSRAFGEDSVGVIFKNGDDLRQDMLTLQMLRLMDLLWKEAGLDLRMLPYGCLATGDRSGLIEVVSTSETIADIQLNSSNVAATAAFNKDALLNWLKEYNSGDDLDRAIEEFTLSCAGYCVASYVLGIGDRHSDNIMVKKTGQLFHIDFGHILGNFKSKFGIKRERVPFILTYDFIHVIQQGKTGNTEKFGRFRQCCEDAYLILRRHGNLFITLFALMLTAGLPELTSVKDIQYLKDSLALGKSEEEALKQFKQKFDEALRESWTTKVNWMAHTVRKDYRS
# T13 sequence (P26450 whole entry partner, canonical isoform): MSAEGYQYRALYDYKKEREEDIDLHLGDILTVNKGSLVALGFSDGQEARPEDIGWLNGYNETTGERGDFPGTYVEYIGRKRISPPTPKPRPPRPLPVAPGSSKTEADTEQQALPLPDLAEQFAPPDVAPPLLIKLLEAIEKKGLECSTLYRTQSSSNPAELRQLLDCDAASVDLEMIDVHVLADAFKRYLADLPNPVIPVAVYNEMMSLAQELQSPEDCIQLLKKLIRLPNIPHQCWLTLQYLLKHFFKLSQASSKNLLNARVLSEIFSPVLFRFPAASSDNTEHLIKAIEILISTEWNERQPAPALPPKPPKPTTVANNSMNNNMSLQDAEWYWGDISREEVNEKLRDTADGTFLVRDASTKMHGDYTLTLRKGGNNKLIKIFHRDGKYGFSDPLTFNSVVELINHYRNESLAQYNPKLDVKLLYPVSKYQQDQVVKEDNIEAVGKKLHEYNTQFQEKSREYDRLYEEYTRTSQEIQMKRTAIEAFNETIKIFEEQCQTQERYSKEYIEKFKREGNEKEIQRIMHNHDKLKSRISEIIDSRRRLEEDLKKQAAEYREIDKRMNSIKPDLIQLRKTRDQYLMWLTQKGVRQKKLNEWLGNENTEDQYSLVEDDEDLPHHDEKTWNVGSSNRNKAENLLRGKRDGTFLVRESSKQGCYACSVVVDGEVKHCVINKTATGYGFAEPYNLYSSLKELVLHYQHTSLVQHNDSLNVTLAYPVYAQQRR
# EGFR(L861Q) = biological target: T14, EGFR(L861Q) (Homo sapiens, UniProt P00533, L861Q); test: KinomeScan; type: binding; settings: 1uM
# T14 construct: purchased DiscoveRx KINOMEscan
# [2] = biological target: T15, TYK2(JH2domain-pseudokinase) (Homo sapiens, UniProt P29597); test: KinomeScan; type: binding; settings: 1uM
# T15 construct: TYK2(JH2domain-pseudokinase); purchased DiscoveRx KINOMEscan
# SGK = biological target: T16, SGK (Homo sapiens, UniProt O00141); test: KinomeScan; type: binding; settings: 1uM
# T16 construct: purchased DiscoveRx KINOMEscan
# CDK8 = biological target: T17, CDK8 (Homo sapiens, UniProt P49336); test: KinomeScan; type: binding; settings: 1uM
# T17 construct: purchased DiscoveRx KINOMEscan
# DMPK2 = biological target: T18, DMPK2 (Homo sapiens, UniProt Q6DT37); test: KinomeScan; type: binding; settings: 1uM
# T18 construct: purchased DiscoveRx KINOMEscan
# [3] = biological target: RPS6KA5(Kin.Dom.2-C-terminal) (Homo sapiens, UniProt O75582); test: KinomeScan; type: binding; settings: 1uM
# Chain of RPS6KA5(Kin.Dom.2-C-terminal) (O75582 388-802 limits assumed): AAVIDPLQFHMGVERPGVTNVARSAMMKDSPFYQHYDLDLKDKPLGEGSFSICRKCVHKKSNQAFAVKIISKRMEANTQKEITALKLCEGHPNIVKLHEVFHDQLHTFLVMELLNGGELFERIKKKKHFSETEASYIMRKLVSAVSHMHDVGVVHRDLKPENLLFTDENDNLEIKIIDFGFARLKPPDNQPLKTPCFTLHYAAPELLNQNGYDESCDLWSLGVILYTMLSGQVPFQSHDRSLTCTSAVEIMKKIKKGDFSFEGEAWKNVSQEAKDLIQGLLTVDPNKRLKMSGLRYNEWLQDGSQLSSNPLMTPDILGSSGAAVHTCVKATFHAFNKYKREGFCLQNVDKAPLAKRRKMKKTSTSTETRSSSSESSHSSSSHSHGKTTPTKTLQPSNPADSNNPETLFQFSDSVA
# PI3Kα = PI3Kα (Homo sapiens, UniProt P42336); test: biochemical
# Description: as §1
# DMPK = biological target: T19, DMPK (Homo sapiens, UniProt Q09013); test: KinomeScan; type: binding; settings: 1uM
# T19 construct: purchased DiscoveRx KINOMEscan
# T19 sequence (Q09013 whole entry): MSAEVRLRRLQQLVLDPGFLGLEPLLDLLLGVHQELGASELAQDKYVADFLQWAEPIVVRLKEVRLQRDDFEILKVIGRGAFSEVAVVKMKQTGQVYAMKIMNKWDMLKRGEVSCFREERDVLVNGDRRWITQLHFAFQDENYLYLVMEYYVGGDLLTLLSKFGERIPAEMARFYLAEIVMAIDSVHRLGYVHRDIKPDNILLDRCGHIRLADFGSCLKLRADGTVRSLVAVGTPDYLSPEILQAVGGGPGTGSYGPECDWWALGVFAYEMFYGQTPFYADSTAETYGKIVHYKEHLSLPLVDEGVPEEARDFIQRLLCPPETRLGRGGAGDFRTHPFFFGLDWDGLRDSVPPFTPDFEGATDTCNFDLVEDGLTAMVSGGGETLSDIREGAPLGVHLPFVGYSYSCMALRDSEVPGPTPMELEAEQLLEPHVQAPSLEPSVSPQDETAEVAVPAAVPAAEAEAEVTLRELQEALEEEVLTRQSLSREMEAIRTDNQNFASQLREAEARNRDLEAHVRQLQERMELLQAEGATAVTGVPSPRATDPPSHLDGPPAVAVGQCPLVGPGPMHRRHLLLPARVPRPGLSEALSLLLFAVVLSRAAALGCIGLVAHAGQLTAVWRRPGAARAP
# IKK-alpha = biological target: T20, IKK-alpha (Homo sapiens, UniProt O15111); test: KinomeScan; type: binding; settings: 1uM
# T20 construct: purchased DiscoveRx KINOMEscan
structure (smiles),measurement,setting,value
Cc1nc(NC(=O)[C@@H](N)C(C)C)sc1-c1cnc(Cl)c(NS(=O)(=O)c2ccccc2)c1 [PI3KD-IN-015],KinomeScan STK16,STK16,91
same,KinomeScan PRKG2,PRKG2,100
same,KinomeScan ABL1-phosphorylated,ABL1-phosphorylated,85
same,KinomeScan FES,FES,100
same,IC50,PI3Kγ,125 nM
same,KinomeScan MAP4K3,MAP4K3,91
same,KinomeScan KIT(V559D),KIT(V559D),87
same,KinomeScan KIT(D816H),KIT(D816H),92
same,KinomeScan NEK6,NEK6,100
same,KinomeScan SYK,SYK,100
same,KinomeScan NDR1,NDR1,100
same,KinomeScan ABL1(Q252H)-phosphorylated,[1],90
same,KinomeScan BRSK1,BRSK1,100
same,EC50,PI3Kβ,> 3000 nM
same,KinomeScan EGFR(L861Q),EGFR(L861Q),95
same,KinomeScan TYK2(JH2domain-pseudokinase),[2],100
same,KinomeScan SGK,SGK,70
same,KinomeScan CDK8,CDK8,100
same,KinomeScan DMPK2,DMPK2,100
same,KinomeScan RPS6KA5(Kin.Dom.2-C-terminal),[3],100
same,IC50,PI3Kα,60 nM
same,KinomeScan DMPK,DMPK,83
same,KinomeScan IKK-alpha,IKK-alpha,95
